In patent US6884792B2, “Bretylium compositions and kits and their use in preventing and treating cardiovascular conditions” (priority 1999, dated 2005):
Where a name gives a salt, the structure may show the parent alone. Read-outs that look alike come from different tables or passages of the source.

Columns and labels:
[1] = Method: To measure the partition coefficient for a facilitating anion in the presence of a bretylium compound, an acidified aqueous solution of the bretylium compound with a non-facilitating anion (e.g., tosylate, bromide or chloride) is first prepared. Sodium bicarbonate and a salt comprising the facilitating anion to be tested are then added to the aqueous solution. The salt comprising the facilitating anion should be added in an amount sufficient to provide about a 1:1 molar ratio of the facilitating anion to the bretylium cation. The sodium bicarbonate is provided in an amount sufficient to produce a preselected pH value. An equal volume of n-octanol is then added to this solution. The solution is shaken. The mixture is centrifuged to separate an octanol-rich layer and an aqueous-rich layer, and the distribution ratio of the bretylium cation between the octanol-rich phase and the aqueous-rich phase (that is, the partition coefficient) may be measured. This analytical approach is believed to provide a suitable model for evaluating the bioavailability of the bretylium cation when utilized with a facilitating anion.
Several formulations of the present invention were tested using an n-octanol/aqueous buffer system to measure the partition coefficients for the bretylium cation in the presence of the facilitating anions of those formulations. An acidified aqueous solution of bretylium tosylate was first prepared. Sodium bicarbonate and a salt comprising the facilitating anion to be tested was then added to the aqueous solution. The salt comprising the facilitating anion was added in an amount sufficient to provide a 1:1 molar ratio of the facilitating anion to the bretylium cation. The sodium bicarbonate was provided in an amount sufficient to produce one of 4 preselected pH values. An equal volume of n-octanol was then added to this solution and the solution was shaken. The mixture was centrifuged to separate an octanol layer and an aqueous layer, and the distribution ratio of the bretylium cation between the octanol-rich phase and the aqueous-rich phase (that is, the partition coefficient) was measured. This analytical approach provides a suitable model for evaluating the bioavailability of the bretylium cation in the compositions tested.
The aqueous bretylium tosylate solutions used in the procedure were prepared in the following manner. An amount of one of the buffer solutions described below (3.0 ml when the most acidic buffer solution was used, and 4.0 ml when the other 3 buffer solutions were used) was transferred to a beaker or an Erlenmeyer flask by pipette. To the buffer solution was added 50 mg of bretylium tosylate per ml of buffer solution and an equimolar amount of the sodium salt of the facilitating anion. For example, where the facilitating anion tested was di(2-ethylhexyl)sulfosuccinate, 54 mg of sodium di(2-ethylhexyl)sulfosuccinate was added per ml of buffer solution. […] Test solutions comprising other facilitating agents were prepared in a similar manner.
Each of the pharmaceutical compositions was tested using each of the following sodium bicarbonate buffer systems:
The first buffer solution was prepared by dissolving 1.0 g of sodium bicarbonate in 100 ml of 0.95M HCl. A pH meter equipped with a conventional glass electrode and a calomel reference electrode was used to measure the nominal pH of this solution and the other 3 buffer solutions.
The second buffer solution was prepared by dissolving 7.5 g of sodium bicarbonate in 100 ml of 0.95M HCl.
The third buffer solution was prepared by dissolving 8.0 g of sodium bicarbonate in 100 ml of 0.95M HCl.

[2] = test system: dogs; assay: VFT 1-5 hours after injection of bretylium tosylate and/or β-receptor blockers; format: in vivo, dog
Method: The increase in efficacy of the bretylium cation afforded by administering the bretylium cation in combination with a β-receptor blocker was tested by administering via injection bretylium tosylate alone, various β-receptor blockers alone, and various combinations of bretylium tosylate and β-receptor blockers to dogs, and then measuring the ventricular fibrillation threshold of the dogs 1-5 hours after drug administration.

[3] = test system: mongrel dog; assay: Electrically induced atrial fibrillation, intravenous administration; format: in vivo; conditions: single intravenous dose, 15 mg bretylium tosylate per kg
Method: This electrode catheter delivered stimulating shocks consisting of a train of square wave pulses of 1 msec duration at 60 Hz. Atrial fibrillation was induced at a current of 6 milliamps.
Defibrillation was first attempted using a single dose of bretylium tosylate (Arnar-Stone, McGaw Park, Ill.) administered intravenously (the dose corresponded to 15 mg of bretylium tosylate per kg of the recipient).
Subsequently, a composition containing bretylium tosylate and aspirin was administered intravenously into the jugular vein. This composition was prepared using a commercially available tablet containing aspirin. The aspirin tablet was dissolved in warm water and filtered through a fine surgical gauze pad (to remove the bulk of the binder in the tablet). The resulting aspirin filtrate was then combined with an approximately equimolar amount of bretylium tosylate dissolved in 5% dextrose in water. Approximately 20 ml of this aqueous solution was injected into jugular vein of the atrially fibrillating dog (this dose corresponded to roughly 15 mg of bretylium tosylate per kg of the recipient and 6.5 mg of aspirin per Kg recipient).

[4] = test system: dogs
[5] = test system: Mongrel dogs; assay: Oral bretylium-tosylate/facilitating-anion combinations: VFT and EVRP; format: in vivo; conditions: dog; 50 milliamps
Method: A catheter electrode was passed under fluoroscopic observation via the jugular vein into the apex of the right ventricle and screwed into place in the myocardium of the right ventricle. […] After the control VFT and EVRP were measured, the compositions were orally administered in capsule form via a stomach tube. […] The VFT and EVRP were measured at various times following this administration. […] See also FIGS. 8-10.

[6] = test system: mongrel dog
Method: At time zero, a 5 milliamp stimulus was applied and a ventricular fibrillation threshold (VFT) was established.
At 1 hour and 20 minutes, the dog was given a 50 mg/kg dose of bretylium lauryl sulfate salt.
At three hours and twenty minutes, the dog's left anterior coronary artery was ligated to attempt to induce ventricular fibrillation by coronary occlusion.
Next, at three hours and thirty-seven minutes, 50 milliamps (the maximum current) was applied in an attempt to induce ventricular fibrillation and/or atrial fibrillation.

[7] = test system: dog; conditions: orally administered to a dog
[8] = water/octanol, relative to chloride; cited from earlier work
[9] = intravenous, about 20 mg bretylium tosylate per kg

Molecule: CCCCC(CC)COC(=O)CC(C(=O)OCC(CC)CCCC)S(=O)(=O)O (centres unmarked) [di(2-ethylhexyl)sulfosuccinate]
- PARTITION COEFFICIENT ([1]; pH 5.5): 4.16
- PARTITION COEFFICIENT ([1]; pH 5.6): 4.94
- PARTITION COEFFICIENT ([1]; pH 7): 5.03
- PARTITION COEFFICIENT ([1]; pH 7.7): 3.61

Molecule: COCCc1ccc(OCC(O)CNC(C)C)cc1 (centres unmarked) [metoprolol]
- Mean % Increase in VFT ([2]; per kg: 0.05 mg metoprolol, no bretylium, 1-5 hours): 96% ± 70%

Molecule: CC[N+](C)(C)Cc1ccccc1Br.Cc1ccc(S(=O)(=O)[O-])cc1 [bretylium tosylate, 2-bromobenzylethyldimethylammonium p-toluenesulfonate, reference compound]
- PARTITION COEFFICIENT ([1]; pH 0.8): 0.33
- PARTITION COEFFICIENT ([1]; pH 2.1): 0.48
- PARTITION COEFFICIENT ([1]; pH 5.5): 0.45
- PARTITION COEFFICIENT ([1]; pH 7.7): 0.49
- Mean % Increase in VFT ([2]; per kg: 20 mg bretylium tosylate, no β-receptor blocker, 1-5 hours after administration): 100-200% (no standard
- effect on atrial fibrillation [3]: No effect
- time after administration at which a substantial increase in ventricular fibrillation threshold began [4, 9]: 12 to 15 min
- time after administration of peak increase in ventricular fibrillation threshold [4, 9]: About 3 hours

Molecule: lauryl sulfate
- PARTITION COEFFICIENT ([1]; n-octanol/buffer, nominal pH 0.8, 1:1 molar facilitating anion:bretylium tosylate): 1.91
- PARTITION COEFFICIENT ([1]; n-octanol/buffer, nominal pH 2.2, 1:1 molar facilitating anion:bretylium tosylate): 3.54
- PARTITION COEFFICIENT ([1]; n-octanol/buffer, nominal pH 5.5, 1:1 molar facilitating anion:bretylium tosylate): 3.71
- PARTITION COEFFICIENT ([1]; n-octanol/buffer, nominal pH 7.0, 1:1 molar facilitating anion:bretylium tosylate): 4.01

Molecule: CC(C)NCC(O)COc1ccc(CC(N)=O)cc1 (centres unmarked) [atenolol]
- Mean % Increase in VFT ([2]; per kg: 0.05 mg atenolol, no bretylium, 1-5 hours): 330% ± 210%

Molecule: CC[N+](C)(C)Cc1ccccc1Br.O=C([O-])c1ccccc1O [Bretylium Salicylate, bretylium salicylate]
- ventricular or atrial fibrillation despite maximum electrical stimulation [5]: did not occur

Molecule: CCCCCCCCCCCCOS(=O)(=O)[O-].CC[N+](C)(C)Cc1ccccc1Br [bretylium lauryl sulfate salt, bretylium lauryl sulfate]
- rhythm 46 minutes after administration despite attempts to reinitiate atrial fibrillation with electrical stimulation ([6]; FIG. 8 legend): maintained a normal sinus rhythm
- fibrillation induced by electrical stimulation at 50 milliamps (maximum current) ([6]; at 3 h 37 min of experiment): No fibrillation (atrial or ventricular) could be induced
- time after dose at which atrial fibrillation ceased entirely ([6]; dog, in vivo, 50 mg/kg): 19 min
- time after dose to periods of normal sinus rhythm ([6]; dog, in vivo, 50 mg/kg): Approximately 18 minutes
- ventricular fibrillation after release of the coronary occlusion ([6]; following two minutes after release at 3 h 35 min): no ventricular fibrillation was observed
- ventricular fibrillation on ligation of left anterior coronary artery ([6]; ligated at 3 h 20 min of experiment, 2 h after 50 mg/kg dose): No ventricular fibrillation was observed
- ventricular or atrial fibrillation despite maximum electrical stimulation [5]: did not occur
- antifibrillatory activity [7]: active antifibrilant

Molecule: Cc1ccc(S(=O)(=O)O)cc1 [tosylate anion, tosylate]
- organic/aqueous phase distribution constant (K) [8]: about 320

Molecule: CCCCC(CC)COP(=O)(O)OCC(CC)CCCC (centres unmarked) [di(2-ethylhexyl)phosphate]
- PARTITION COEFFICIENT ([1]; pH 0.8): 0.35
- PARTITION COEFFICIENT ([1]; pH 2.2): 0.49
- PARTITION COEFFICIENT ([1]; pH 5.5): 0.51
- PARTITION COEFFICIENT ([1]; pH 7.7): 2.33

Molecule: CC(C)NCC(O)COc1cccc2ccccc12 (centres unmarked) [propranolol]
- Mean % Increase in VFT ([2]; per kg: 0.075 mg propranolol, no bretylium, 1-5 hours): 110% ± 40%
- increase in the ventricular fibrillation threshold ([4]; intravenous propranolol alone, 0.05 to 0.5 mg/kg): 110%±40%

Molecule: COC(=O)CCc1ccc(OCC(O)CNC(C)C)cc1 (centres unmarked) [esmolol]
- Mean % Increase in VFT ([2]; per kg: 25 to 300 μg esmolol, no bretylium, 1-5 hours): no significant increase
